From paper PMC9537177, “A VEGFR targeting peptide-drug conjugate (PDC) suppresses tumor angiogenesis in a TACE model for hepatocellular carcinoma therapy” (Cell Death Discovery, 2022)
Like-named read-outs stand apart in the source and are kept apart here. Square brackets hold non-standard residues; d marks the D form. Peptide text beside a SMILES is read from it. Aib = CC(C)(N)C(=O)O

Legend:
[1] = system: Huh7 cells; assay: Cell viability (CCK8) assay, Huh7; type: cell-based, human; conditions: for IC50: CCK8, 48 h treatment in medium with 5% FBS, absorbance 450 nm, mean ± SD, read-out: IC50, cytotoxicity in Huh7 cells
Protocol: (§1) All reagents were purchased from Gibco. All these cells were routinely tested for mycoplasma contamination and tested negative and maintained in a humidified incubator containing 5% CO2 at 37 °C. Cell viability for different cell lines were measured by cell counting kit-8 (CCK8) assays. The cells were incubated on a 96-well plate for 24 h in growth medium prior to drug treatment. […] Then CCK8 (10 μL) was added and the cells were incubated for 1 h at 37 °C with 5% CO2. Absorbance was measured with a microplate reader (Bio-Rad) at a wavelength of 450 nm.

[2] = system: VX2 liver tumor; assay: VX2 rabbit liver tumor model with TAE/TACE: tumor growth, necrosis, apoptosis, proliferation, angiogenesis; type: in vivo, New Zealand white rabbits; conditions: for mean tumor volume at 7 days after TAE procedure: 0.5 mL lipiodol emulsion into tumor-feeding artery, QR-KLU 4 mg/kg; for mean tumor volume at 7 days after TAE procedure / tumor growth rate (V7/V0 × 100%) / mean tumor necrosis rate: DOX 2 mg/kg, KLU 4 mg/kg; for mean tumor volume at 7 days after TAE procedure / mean tumor volume one day before TAE procedure: MR images, 24 rabbits evenly in four groups; for mean tumor volume at 7 days after TAE procedure / mean tumor necrosis rate / mean tumor volume one day before TAE procedure: mean ± SD; for tumor growth rate (V7/V0 × 100%): 7 days after TAE, NS group 276.4%; for tumor growth rate (V7/V0 × 100%) / mean tumor necrosis rate: QR-KLU 4 mg/kg in lipiodol; for mean proportion of apoptotic cells in tumor (TUNEL) / mean proportion of proliferating cells in tumor (Ki67) / mean tumor necrosis rate: 7 days after treatment; for mean proportion of apoptotic cells in tumor (TUNEL) / mean proportion of proliferating cells in tumor (Ki67): versus NS group; for mean tumor necrosis rate: H&E staining; for mean tumor volume one day before TAE procedure: baseline, V = a*b^2/2, VX2 rabbits
Protocol: New Zealand white rabbits (2.5-3 kg) were purchased from the Laboratory Animal Center of Tongji Medical College of Huazhong University of Science and Technology (Wuhan, China). All the animal experimental procedures were performed in accordance with the National Institutes of Health Guidelines for the Care and Use of Laboratory Animals and the protocol was approved by the Ethics Committee of Tongji Medical College, Huazhong University of Science and Technology. Blinding was not possible in most animal experiments. The rabbit VX2 liver tumor model was established according to the method reported by Qian K et al.. […] The acquisition parameters of the sequence are as follows: […], TR 2750 ms, TE 65 ms, the field of view 120 mm × 120 mm, Slice thickness 3 mm in the transverse plane, matrix 152 × 152. The multi-vane technique was used to reduce artifacts and improve image quality, acquisition time 3 min […]; […] Seven days after TACE procedure, tumor size was evaluated again by MR scan and the tumor volume was calculated by formula: V = a * b^2/2 (a, long diameter; b, short diameter). And tumor growth rate was calculated by formula: […] Finally, the VX2 rabbits were sacrificed and the tumor tissues were harvested for biochemical analysis and histopathological examination. […] The IHC staining procedures were performed as previously described. Briefly, the sections were blocked in 3% H2O2 for 25 min and then incubated with goat serum for 15 min. Subsequently, the sections were first washed and incubated with anti-VEGF (1:200, Abcam, USA), and anti-CD31 (1:20; Abcam, USA) overnight at 4 °C, and then incubated with second antibody (Abcam, USA) at 37 °C for 50 min. Next, the sections were stained with 3, 3'-diaminobenzidine (DAB, Service bio, Wuhan […] Biotechnology Co., Ltd., China) for 6 min and rinsed and stained in hematoxylin for 30 s. The sections were then dehydrated in gradient alcohol and sealed in neutral resins. VEGF expression was assessed by semiquantitative IHC based on staining intensity and density, the staining intensity was scored as 0 (negative), 1 (weak), 2 (moderate), and 3 (strong), while the staining density was scored on the basis of the percentage of positively stained cells: 0 (0%), 1 (1-25%), 2 (26-50%), 3 (51-75%), and 4 (76-100%). The total VEGF IHC score was calculated by multiplying the intensity score by the density score. Microvessel density (MVD) was calculated according to the method developed by Weidner et al.

[3] = system: HUVEC cells; assay: Cell viability (CCK8) assay, HUVEC; type: cell-based, human
Protocol: as §1

[4] = system: HUVEC cells; assay: Wound-healing assay of HUVEC cells; type: cell-based, human; conditions: 24 h
Protocol: Wound-healing assay was performed according to the protocols reported by Liang et al.. Briefly, HUVEC cells were plated into 12-well plate and grown to create a confluent monolayer. The monolayer was grazed in a straight line to create a “scratch” with a pipette tip. Markings were created close to the scratch to be used as reference points. Then cells were treated with different peptides for 24 h at 37 °C. Images were collected with a Leica DFC480 camera on a phase-contrast microscope equipped with a 10 × objective at room temperature. The free area of the wound was measured by image software. Supplementary Figure S1. Wound healing assay to detect the cell migration influenced by different peptides.

[5] = Therapeutic safety in VX2 tumor-bearing rabbits (organ H&E, serum biochemistry); conditions: before and 1, 3, 7 days after treatment; 4 mg/kg in lipiodol via TAE
Protocol: Twenty-four VX2 tumor-burdened rabbits were evenly divided into four groups. After fasting for 12 h, the rabbits were anesthetized by intravenous injection of pentobarbital sodium solution (2 wt.%, 30 mg/kg). The rabbit’s right femoral artery was dissected and a 4-F Cobra catheter (Cook, Inc., Bloomington, Indiana) was inserted into the celiac artery, hepatic arteriography was then performed under the guidance of digital subtraction angiography (DSA), and a 2.7-F coaxial microcatheter (Terumo, Tokyo, Japan) was super-selectively inserted into the tumor donor branch subsequently. The emulsion of drugs and lipiodol were slowly injected into the tumor-feeding artery through the above microcatheter at a speed of 0.5 mL/min. […] After obtaining all DSA images, the sheaths and catheters were removed.
Seven days after treatment, the liver tumors, hearts, lungs, kidneys and spleens were harvested and fixed in 4% phosphate-buffered paraformaldehyde, the specimens were embedded in paraffin blocks and cut into 5‐μm‐thick sections. Following the manufacturer’s guidelines, the sections were stained with haematoxylin and eosin (H&E) for the evaluation of organ toxicity and tumor necrosis, Ki-67 staining and transfer-mediated dUTP nick end labeling (TUNEL) technique were used to detect tumor proliferation and apoptosis, respectively.
Blood samples were collected before treatment and at 1, 3, 7 days after treatment. The blood samples were stood at room temperature for 30 min, and the serum was obtained by centrifugation (room temperature, 8000 rpm, 10 min) for assessment of alanine aminotransferase (ALT), aspartate aminotransferase (AST), total bilirubin (TBIL) and creatinine (CREA). The assays were performed using the commercially ready-made kits following the manufacturers’ instructions.

[6] = system: Huh 7 cells; conditions: 80 μM, 24 h, Annexin V-PI FACS
Protocol: Viable cells, early apoptotic cells, necrotic cells, late apoptotic cells were represented by Q4, Q3, Q2 and Q1 respectively.
(§2) The apoptosis assay was performed according to the manufacturer’s instructions using an Annexin V: Fluorescein Isothiocyanate (FITC) Apoptosis Detection Kit I (BD Pharmingen™). Briefly, Huh 7 or HUVEC cells were seeded in a 12-well plate and allowed to grow for 24 h in medium with 10% FBS. Then, the cells were treated with the different peptides in medium with 5% FBS for 24 h’ incubation. The cells were harvested with 0.25% trypsin/EDTA, washed twice with PBS and suspended in 1 × binding buffer. The suspended cells were treated with FITC-labeled Annexin V and propidium iodide (PI) as the protocol indicated and then analyzed by flow cytometry to determine the apoptotic cells. The cells with positive fluorescence intensity signals for both FITC and PI were used for the apoptotic cell count.

[7] = system: HUVEC cells; assay: Annexin V-FITC/PI cell apoptosis assay, HUVEC; type: cell-based, human; conditions: 80 μM, 24 h, Annexin V-PI FACS
Protocol: The improved proapoptotic activity of QR-KLU was further confirmed by Annexin V-PI staining through FACS. Viable cells, early apoptotic cells, necrotic cells, late apoptotic cells were represented by Q4, Q3, Q2 and Q1 respectively. […] Besides, QR-KLU induced cell apoptosis in a dose-dependent manner. […] The percentage of apoptotic cells in KLU peptide at 20 μM were about 25% in both Huh7 cells and HUVEC cells.
as §2
Supplementary Figure S2. Cell apoptosis of HUVEC induced by different peptides. HUVEC cells were treated with PBS, 80μM QR, 20μM KLU, 5μM QR-KLU, 10μM QR-KLU for 24 hours before detection by FACS.

| Compound | IC50 ([1]; Homo sapiens, Huh-7) | mean tumor volume at 7 days after TAE procedure [2] | tumor growth rate (V7/V0 × 100%) [2] | mean proportion of apoptotic cells in tumor (TUNEL) [2] | mean proportion of proliferating cells in tumor (Ki67) [2] | mean tumor necrosis rate [2] | mean tumor volume one day before TAE procedure [2] | IC50 [1] | IC50 ([3]; CCK8, 48 h treatment in medium with 5% FBS, absorbance 450 nm, mean ± SD, read-out: IC50, cytotoxicity in HUVEC cells) | cell migration of HUVEC (wound epithelial gap) ([4]; 20 μM) | liver and renal toxicity (ALT, AST, TBIL, CREA in serum) [5] | cellular toxicity in Huh7 cells ([1]; CCK8, 48 h, up to 80 μM) | cellular toxicity in HUVEC cells ([3]; CCK8, 48 h, up to 80 μM) | proapoptotic effect in Huh 7 cells [6] | proapoptotic effect in HUVEC cells [7] | cell proliferation or migration of HUVEC (wound healing) ([4]; 80 μM) |
| --- | --- | --- | --- | --- | --- | --- | --- | --- | --- | --- | --- | --- | --- | --- | --- | --- |
| COc1cccc2c1C(=O)c1c(O)c3c(c(O)c1C2=O)C[C@@](O)(C(=O)CO)C[C@@H]3O[C@H]1C[C@H](N)[C@H](O)[C@H](C)O1 [DOX, doxorubicin] | 0.243 ± 0.076 µM | 1382.9 ± 563.7 mm^3 | significantly lower than that of the NS group | significantly higher than that in NS group | significantly lower than that in NS group | 81.4% ± 2.3 | 889.0 ± 317.7 mm^3 |  |  |  |  |  |  |  |  |  |
| CC(=O)N[C@@H](CCCCN)C(=O)N[C@@H](CC(C)C)C(=O)NC(C)(C)C(=O)N[C@@H](CCCCN)C(=O)N[C@@H](CC(C)C)C(=O)NC(C)(C)C(=O)N[C@@H](CCCCN)C(=O)N[C@@H](CCCCN)C(=O)N[C@@H](CC(C)C)C(=O)NC(C)(C)C(=O)N[C@@H](CCCCN)C(=O)N[C@@H](CC(C)C)C(=O)NC(C)(C)C(=O)N[C@@H](CCCCN)C(N)=O [KLU] (Ac-KL[Aib]KL[Aib]KKL[Aib]KL[Aib]K-NH2) |  | 1321.4 ± 210.4 mm^3 | significantly lower than that of the NS group | significantly higher than that in NS group | significantly lower than that in NS group | 79.5% ± 8.0 | 991.8 ± 114.2 mm^3 | 36.3 ± 2.7 µM | 33.8 ± 0.98 µM | the wound epithelial gap was unchanged or even bigger | no significant liver or renal toxicity |  |  |  |  |  |
| Ac-QKRKRKKSRYKS-NH2 [QR] |  |  |  |  |  |  |  |  |  |  |  | negligible toxicity | negligible toxicity | didn’t show obvious proapoptotic effect | didn’t show obvious proapoptotic effect | not affected |
